PubChem BioAssay (NCI)
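In this assay, cells in 96-well plates receive the compound at five concentrations for 48 hours. Endpoints are linearly interpolated between the surrounding concentrations. GI50: concentration for 50% inhibition of growth. TGI is the concentration that stops growth completely.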

Assays:
Assay in all cases: inhibition of tumour cell growth, NCI panel, 48 h
[1] = system: SNB-19 CNS
[2] = system: IGROV1 ovarian
[3] = system: HCT-15 colon
[4] = system: SK-MEL-5 melanoma
[5] = system: SN12C renal
[6] = system: NCI-H522 lung
[7] = system: COLO 205 colon
[8] = system: U251 CNS
[9] = system: BT-549 breast
[10] = system: MCF7 breast

Row | Compound | TGI [1] | TGI [2] | TGI [3] | TGI [4] | TGI [5] | TGI [6] | TGI [7] | TGI [8] | GI50 [6] | GI50 [1] | GI50 [9] | TGI [9] | GI50 [2] | GI50 [3] | GI50 [4] | GI50 [7] | GI50 [8] | GI50 [10] | TGI [10] | GI50 [5]
1 | CC1=C(C(=O)Nc2ccccc2C)C(c2ccccc2O)C(C(=O)Nc2ccccc2C)=C(C)N1 | > 100 µM | 37.5 µM | 29.4 µM | 61.8 µM | 44 µM | – | – | – | – | – | – | – | – | – | – | – | – | – | – | –
2 | C[C@H]1[C@H](C)CC[C@]2(C(=O)O)CCC3(COC(=O)/C=C/c4ccc(O)cc4)C(=CCC4[C@@]5(C)CC[C@H](O)C(C)(C)C5CC[C@]43C)[C@H]12 (stereo not given in full) | 22.5 µM | 15.4 µM | 15.7 µM | 24.4 µM | 20.8 µM | 17.1 µM | 17.9 µM | 9.92 µM | – | – | – | – | – | – | – | – | – | – | – | –
3 | Cc1cc(=O)n2c(cc3cccccc32)n1 | > 100 µM | > 100 µM | > 100 µM | – | > 100 µM | > 100 µM | > 100 µM | > 100 µM | – | – | – | – | – | – | – | – | – | – | – | –
4 | CCOC1Oc2ccccc2C(=O)/C1=C\Nc1ccc(C(=O)O)c(O)c1 (stereo not given) | 94.4 µM | > 100 µM | 45.9 µM | 37.4 µM | 36.7 µM | > 100 µM | 56.5 µM | 46.5 µM | > 100 µM | 28.6 µM | 26.4 µM | 87.5 µM | 43.9 µM | 16.4 µM | 18.6 µM | 23.9 µM | 19.1 µM | 29.9 µM | > 100 µM | 16.5 µM
5 | O=C(C(=O)c1cccnc1)c1cccnc1 | > 100 µM | > 100 µM | > 100 µM | > 100 µM | > 100 µM | > 100 µM | > 100 µM | > 100 µM | > 100 µM | > 100 µM | > 100 µM | > 100 µM | > 100 µM | > 100 µM | > 100 µM | > 100 µM | > 100 µM | > 100 µM | > 100 µM | > 100 µM
6 | CC(/C=C1\CCC(CN(C)C)C1=O)c1cccc(Br)c1 (stereo not given) | 61.2 µM | 19.4 µM | 34 µM | 18.8 µM | 43.3 µM | 22 µM | 37.4 µM | 32.4 µM | – | – | – | – | – | – | – | – | – | – | – | –
7 | Cc1ccc(-c2nc3ccccc3c(=O)n2NC2OC(CO)C(O)C(O)C2O)cc1 (stereo not given) | > 100 µM | > 100 µM | > 100 µM | > 100 µM | > 100 µM | > 100 µM | > 100 µM | > 100 µM | – | – | – | – | – | – | – | – | – | – | – | –
8 | CCCc1nn(C)c(CCC(=O)N(Cc2ccccc2)Cc2ccccc2)c1CC | > 100 µM | > 100 µM | > 100 µM | > 100 µM | > 100 µM | > 100 µM | > 100 µM | > 100 µM | – | – | – | – | – | – | – | – | – | – | – | –
9 | O=C(CCN1CCCC1)Nc1ccc2c(Nc3ccc(Br)cc3)c3ccccc3nc2c1 | 2.79 µM | 2.59 µM | 2.5 µM | 2.92 µM | 2.69 µM | – | 4.33 µM | – | – | 1.44 µM | 1.44 µM | 3 µM | 1.23 µM | 1.16 µM | 1.57 µM | 1.85 µM | – | – | – | 1.3 µM
10 | O=C(CC1(O)C(=O)Nc2c(Cl)cc(Cl)cc21)c1ccc([N+](=O)[O-])cc1 (stereo not given) | > 100 µM | > 90.6 µM | > 100 µM | > 57.3 µM | > 68 µM | 46.4 µM | > 92.7 µM | > 100 µM | – | – | – | – | – | – | – | – | – | – | – | –
11 | C=C(C)C1CC=C(C)C(O)([C@@]2(O)C[C@H](C(=C)C)CC=C2C)C1 (stereo not given in full) | > 100 µM | 53.4 µM | – | 28.3 µM | 33.2 µM | 41.5 µM | – | 34.7 µM | – | – | – | – | – | – | – | – | – | – | – | –
12 | COC(=O)/C(=N\Nc1nc(=S)[nH]n1N)C(C#N)c1ccc(Cl)cc1 (stereo not given) | > 100 µM | > 100 µM | > 100 µM | – | > 100 µM | – | > 100 µM | > 100 µM | – | – | – | – | – | – | – | – | – | – | – | –
13 | Nc1nc(N)c(CCCCc2ccccc2)c(/C=C/c2ccc([N+](=O)[O-])cc2)n1 | 64.7 µM | 20.2 µM | 7.09 µM | 16.3 µM | 8.96 µM | 5.57 µM | 47.6 µM | 11.4 µM | – | – | – | – | – | – | – | – | – | – | – | –
14 | CC(=O)CCn1[nH]c(=O)c(Cl)c(Cl)c1=O | 31.1 µM | > 100 µM | > 100 µM | > 100 µM | > 100 µM | – | – | – | – | – | – | – | – | – | – | – | – | – | – | –
15 | CC1(C)C2=CCCC(=O)[C@@]2(C)CC[C@@H]1O | > 100 µM | > 100 µM | – | > 100 µM | > 100 µM | > 100 µM | > 100 µM | > 100 µM | – | – | – | – | – | – | – | – | – | – | – | –
16 | CCCCCC1CC=CC(NC(=O)OCc2ccccc2)C1/C=C/CCCC1OCCO1 (stereo not given) | > 100 µM | > 100 µM | > 100 µM | > 100 µM | > 100 µM | > 100 µM | > 100 µM | > 100 µM | – | – | – | – | – | – | – | – | – | – | – | –
17 | CC1(C)C=C(N2CCN(C3=CC(C)(C)NC(C)(C)C3)CC2)CC(C)(C)N1 | > 100 µM | > 100 µM | > 100 µM | > 100 µM | > 100 µM | > 100 µM | – | > 100 µM | – | – | – | – | – | – | – | – | – | – | – | –
18 | Cc1nccc2c3ccc(OCc4cn(-c5ccc(Br)cc5)nn4)cc3n(CCCc3ccccc3)c12 | > 100 µM | > 100 µM | – | > 100 µM | – | – | – | 3.79 µM | – | 3.35 µM | 2.47 µM | 7.48 µM | 6.44 µM | – | 3.92 µM | – | 1.92 µM | 3.09 µM | > 100 µM | –
19 | CCCCCCCCCCCCCP(=O)(OC)OC | 38.6 µM | 35.5 µM | 31.6 µM | 32.6 µM | 35 µM | 26.6 µM | 34.2 µM | 32.9 µM | – | – | – | – | – | – | – | – | – | – | – | –
20 | CCOC(=O)Nc1cc2c(c(N)n1)N=C(c1ccccc1)CN2 | > 59.5 µM | – | – | < 0.0001 µM | 37.8 µM | < 0.0001 µM | 0.255 µM | 1.42 µM | < 0.0001 µM | < 0.0001 µM | – | – | < 0.0001 µM | < 0.0001 µM | < 0.0001 µM | < 0.0001 µM | – | 0.0232 µM | 20.5 µM | –
21 | CCN(CC)CCNc1ccc(N=Nc2cnc3ccccc3c2)c2ccccc12 | 3.97 µM | 3.77 µM | 2.93 µM | 3.03 µM | 3.16 µM | 3.54 µM | 2.98 µM | 3.2 µM | 1.91 µM | 2.06 µM | – | – | 1.67 µM | 1.47 µM | 1.67 µM | 1.61 µM | 1.7 µM | 1.37 µM | 2.7 µM | 1.64 µM
